In patent US20240058240A1, “COMPOUNDS AS SELF-TANNING SUBSTANCES AND TANNING COMPOSITIONS THEREOF” (CHEMCOM S.A., priority 2020, published 2024):

Assays:
Assay type in all cases: cell-based
human skin explants [1] = experiment: Melanogenesis in human skin living explants (Masson's Fontana staining, image analysis); details: for melanogenesis: compared with chronic UVA; for increase of melanin content in the basal layer of the epidermis (image analysis, stained surface): D6, explants phototype II, p<0.01
Protocol: (§1) Human skin explants of an average diameter of 12 mm (±1 mm) were prepared on an abdoplasty coming from a person (reference: P2237AB47—phototype II) or person (reference P2196-AB61, phototype III). The explants were kept in survival in BEM culture medium (BIO-EC's Explants Medium) at 37° C. in a humid, 5%-CO2 atmosphere.
(§2) The Ambermax was diluted in 0.1% ethanol at the following concentrations: 0.3 μM, 1 μM, 3 μM, 10 μM, 15 μM, 30 μM and 100 μM. The diluted solutions were stored at 4° C. during the study.
(§3) The explants were treated for 10 days with Ambermax (see products application below) or with no treatment.
(§4) On day 0 (DO), day 3 (D3), day 5 (D5), day 7 (D7) and day 10 (D10), the tested products (compounds for use in the invention) were 1) applied topically using a small spatula based on 2 μl per explant (2 mg per cm^2) at the indicated concentrations, 2) applied intradermatically by injections into the dermis using a syringe with 20 μL of product for each explant or 3) applied systemically by dilutions of the compound of invention in the culture media at the indicated concentration. […] The culture medium was half renewed (1 ml/well) on day 3, day 5, day 7 and day 10.
(§5) On day 0 (D0), D2, D3, D6, and D8, the tested products (compounds for use in the invention) were applied topically using a small spatula on the basis of 2 μl per explant (2 mg per cm^2). […] The culture medium was half renewed (1 ml/well) on D2, D3, D6 and D8.
(§6) After fixation for 24 hours in buffered formalin solution, the samples were dehydrated and impregnated in paraffin using a Leica PEARL dehydration automat. The samples were then paraffin-embedded using a Leica EG 1160 embedding station. 5-μm-thick sections of paraffin-embedded formol fixed sections were realized using a Leica RM 2125 Minot-type microtome, and the sections were then mounted on Superfrost® Plus glass slides. Microscopical observations were realized using a Leica DMLB, a BX43 or BX63 Olympus microscope. Pictures were digitized with an Olympus DP72 or DP74 camera and the Cell^D or cellSens data storing software.
Melanin was visualized after silver impregnation according to Masson's Fontana staining method on formalin-fixed paraffin-embedded (FFPE) skin sections. The staining was assessed by microscopical observation and image analysis of specific batches. Concerned batches: T0, (TUV, P1→P10) on D5 or D6 and D10.
The images analyses were performed on all the images of each batch, according to the following method using Cell^D or cellSens software:
For each batch of explants, the percentage of the region of interest covered by the staining (stained surface percentage) is determined by image analysis according to the previously described process.
Stained surfaces comparisons: the stained surface percentage (Surf %) for each treatment is compared to the untreated condition=>P vs T. The same comparisons are made for the induced batches with or without treatment=>T vs TUV.
(§7) The effects ex vivo was shown by treating human biopsies for 10 days (human living explants: 12 mm+/−1, donor, skin type III) with a systemic application, intradermic injections or a topical application of compounds according to embodiments of the invention (Ambermax). Concentrations of 1, 5 and 10 μM of this compound were used for systemic application and intradermic injections on the human explants. For topical application, biopsies were treated with 10, 30, and 100 μM of Ambermax. As control, non-treated explants or/and explants exposed to chronic UVA-irradiations were used as described in the experimental procedures.

human skin explants [2] = experiment: Cellular viability of human skin living explants (Masson's trichrome, Goldner variant)
Protocol: as §1, §2, §3, §4, §5, §6
The cell viability of epidermal and papillary dermal structures was observed on formalin-fixed paraffin-embedded (FFPE) skin sections after Masson's trichrome staining, Goldner variant. The cell viability was assessed by microscopical observation. Concerned batches: T0, (TUV, P1→P10) on D5 or D6 and D10.
as §7

human skin explants [3] = experiment: Melanogenesis in human skin living explants (Masson's Fontana staining, image analysis); details: systemic treatment, 3 and 5 μM, after 5 days, compared with chronic UVA
[4] = system: Normal Human Epidermal Melanocytes moderately pigmented (NHEMs-MP); experiment: Melanin content (pigmentation) of NHEMs-MP in culture; details: 3.16 μM, 4 days, NHEMs-MP, in comparison with DOPA (50 μM)
Protocol: This primary culture was cultivated in medium M254 supplemented (LIFE TECHNOLOGIES; ref:M-254-500) with HMGS (human melanocyte growth supplement; LIFE TECHNOLOGIES; ref: S-002-5) and gentamycin (LIFE TECHNOLOGIES; ref:15710-049) and maintained in a humidified incubator at 37° C. with a 5% CO2 atmosphere. For experiments (see below), cells were seeded at a density of 9×10^4 cells/well (100 μL/well) and cultured at 37° C. under a 5% CO2.
The NHEMs-MP were treated for 4 days, with a medium refresh after 2 days of treatment—Amberketal, Ambermax and with the reference molecule (L-DOPA)—when the culture media are collected and stored at −80° C. as shown in FIG. 2. At the end of the treatments, the culture media were collected a second time, pooled with the media collected at day 2 and centrifuged for 30 minutes (14000 rpm). The pellet obtained after centrifugation and NHEMs-MP treated cells were lysed in 150 μl of a NaOH 1M solution. 5 μl of each cell lysate were used for protein quantification using BCA protein assay. The remaining 145 μl of the lysates were heated at 80° C. during 1 h. The optical density was measured at 490 nm and the melanin content was determined by comparison with a standard curve of synthetic melanin and reported to the quantity of protein present in each cell well tested.
The effects of these 2 compounds, namely Ambermax and Amberketal, on the melanin production were evaluated as described above. Based on MTS results, moderately pigmented (MP) NHEMs were treated with these 2 compounds at one concentration (100 μM for Amberketal and 3.16 μM for Ambermax) for 4 days. In parallel, cell cultures were also treated with Ethanol 0.1%, a concentration corresponding to the test compounds solvent, and with a known modulator of pigmentation (L-DOPA 50 μM). […] At the end of the treatments (D4), cells were lysed, the melanin content was quantified by spectrophotometry and normalized to the amount of proteins. Extracellular melanin was also evaluated by the same methodology after centrifugation of the culture media.

Ambermax [Compound 16]
enhancement of melanogenesis (microscopical observation and semi-quantification of melanin staining) (human skin explants [1]; FFPE skin sections, without UVs exposure): very effective to enhance melanogenesis without UVs exposure
most effective concentration (melanogenesis) (human skin explants [1]; intradermal injection for 10 days): 1 µM
melanogenesis (human skin explants [1]; intradermal injection, 1 μM and 10 μM, after 5 days): increase of melanogenesis slightly weaker than that achieved with chronic UVA
melanin content present in the basal layer in skin explants (human skin explants [1]; second batch of explants, phototype II, topical): induced an increase of the melanin content present in the basal layer
most efficient concentration to stimulate melanin synthesis (human skin explants [1]; systemic treatment, day 10): 1 µM
increase of melanin content in the basal layer of the epidermis (image analysis, stained surface) (human skin explants [1]; topical 10 μM): 152%
increase of melanin content in the basal layer of the epidermis (image analysis, stained surface) (human skin explants [1]; topical 15 μM): 160%
melanogenesis (human skin explants [1]; topical treatment, 10 μM, 30 μM and 100 μM, 10 days): moderate melanogenesis induction, slightly lower than that obtained with of chronic UVA
melanogenesis (human skin explants [1]; topical treatment, 10 μM, 5 days): increase in melanogenesis comparable to that obtained with chronic UVA irradiation
explant toxicity (human skin explants [2]; 0.3-100 μM, 3 different ways of application): doesn't induce explant toxicity
explant viability (human skin explants [2]; D5 and D10, 3 concentrations, 3 methods of application (topical, systemic, intradermal), skin type III): no significant alterations of explant viability
explant alterations (human skin explants [2]; application of 100 μM, D10): very slight alterations
alteration of the papillary dermis (human skin explants [2]; topical administration, 100 μM): no modification of the papillary dermis
explant viability in the epidermis (macroscopic evaluation) (human skin explants [2]; topical administration, 100 μM): very slight decrease in the viability
melanogenesis (human skin explants [3]): rise of melanogenesis equivalent to the one obtained with a chronic UVA irradiation
increase of melanin present in the media (extracellular) ([4]; p<0.01, n=10): +123%
increase of intracellular melanin content ([4]; p<0.01, n=12): +46%
